The values that follow come from US20260088132A1, “CHEMICAL PAINTING” (The Trustees of Columbia University in the City of New York, priority 2023, published 2026).

Structures can show the parent of a compound that is named as a salt.

Type in all cases: cell-based, human
Assay [1] has as its system MDA-MB-231 cells. Put plainly: Chemical Painting: single-cell metabolic responses by FTIR imaging with three IR-active vibrational probes. Particulars: drug at its IC50 concentration, 48 hrs, compared with control. Here is the method: The first step is to add the three vibrational probes and the tested drug at its IC50 concentration to the cell culture media and co-cultured for 48 hrs. After that, cells are fixed and air-dried. Then Fourier transformed infrared (FTIR) imaging, a modality of MIR imaging, was performed to collect the full spectral data of cells. The collection speed is around 2 cells/second for human cancer cells with sufficient co-scans (˜64 scans). In the following data analysis, quality test, baseline correction and data normalization were included for data preprocessing (Methods). Next, single-cell segmentation was performed with open-source software CellProfiler to generate masks. These masks can be further used to extract single-cell IR spectrum from the MIR imaging data, forming the single-cell biochemical profile. We then introduced a series of analytical methods for the downstream analysis, including machine learning, novelty detection and statistical methods to map cell phenotypes and identify drug MoAs. Overall, the workflow of Chemical Painting is straightforward in experimental operations and effected in single-cell data analysis, which laid the foundation for this method to reveal valuable insights toward phenotypic profiling and potential drug discovery.
Systematic sensitivity and generalizability evaluation of Chemical Painting toward a broad range of drugs: It remains unknown whether our method has sufficient sensitivity to differentially discriminate cell responses to different drugs. To evaluate its sensitivity we tested 13 drugs belonging to 9 different drug MoAs. These drugs can be separated into two main panels: one consists of drugs that inhibit general metabolism; another one contains drugs targeting specific proteins or interfering with particular metabolic pathways. The single-cell metabolic responses toward different drug treatment were visualized in the 3D scatter plots where x-axis represents saturated FA metabolism (azido-PA/CH2), y-axis represents unsaturated FA metabolism (d34OA/CH2), and z-axis represents protein synthesis (^13C amide I/(^13C amide I+^12C amide I)). The use of ratios is meant for more accurate quantification of metabolic activities. Each dot represents the metabolic responses of an individual cell in the plots.
(§1) Sample preparation for drug-treated cells with labeling. MDA-MB-231 cells were seeded on clean CaF2 substrates with 5×10^4 cells per well in cell culture media (DMEM, 10% FBS, 1% penicillin) overnight. Then the culture media was replaced by ^13C-amino acids DMEM with 50 μM azido-palmitic acid, 50 μM d34 oleic acid, either single drug at its IC50 concentration or drug combinations at chosen concentrations. Drugs were prepared in 100% DMSO and diluted to 0.1% DMSO in labeling media. For the control group, only cell labeling media with 0.1% DMSO was added (without any drugs). Cells were treated for 48 hrs. After that, cells were fixed by 4% PFA at room temperature for 15 min and washed three times with PBS buffer and five times with dd-H2O. The samples were then air-dried before imaging.
(§2) FTIR imaging. Agilent Cary 620 Imaging FTIR equipped with an Agilent 670-IR spectrometer and 128×128-pixels FPA mercury cadmium telluride (MCT) detector was used in the transmission mode. A background spectrum was collected on a clean CaF2 substrate using 128 scans at 8 cm-1 spectral resolution. Cell spectra were recorded using 64-128 scans at 8 cm-1 spectral resolution. A ×25 IR objective (pixel size, 3.3 um, 0.81 numerical aperture (NA)) was used for cell imaging.
Data preprocessing. […]

In assay [2] the test system is MDA-MB-231 cells. The experiment in a line: Novelty detection of drug MoA on single-cell Chemical Painting data (LDA, Mahalanobis distance, isolation forest). Particulars: test compounds; for Prediction: MoA predicted as known class or novel; for Mean score: dynamic range [1, −1], below 0.1 detected as novel; for Outlier %: single-cell data predicted as outliers (novel).
From the text: We specifically designed an algorithm for Chemical Painting to identify drugs with novel MoAs, using the dataset and model in drug MoA prediction as an annotated reference. In this algorithm, the first step is to calculate the Mahalanobis distance between single-cell data from test compound and each reference class in the trained LDA model. The class with the minimum distance represents the known drug closest to the test compound. Next, isolation forest, is introduced to determine whether the test compound is novel to the selected known drug class. The prediction output in this step is 1 as inliers (known) and −1 as outliers (novel) for each single-cell data from the test compound. […] Test compound with a mean prediction score below the threshold value is detected as novel.
as §1, §2
Machine learning. The tests of all the machine learning classifiers were performed using Python (Scikit-learn). Specifically, single-cell data was split into 70% training and 30% testing with labels corresponding to drug MoAs. The hyper-parameters of each classifier were carefully tuned using RandomizedSearchCv in Scikit-learn. The performances of these classifiers were evaluated in the testing dataset using accuracy as the main metric. To test the performance of classifiers on batch effects, single-cell data collected from different batches were loaded as another testing dataset. For feature importances of LDA classifier, permutation feature importance (Scikit-learn) was used. The intrinsic feature importance values from random forest classifier were also extracted.
Novelty detection algorithm. In the first step, the Mahalanobis distances between the test compound and each reference class in the annotated dataset were calculated by home-built codes in python. Drug class with minimum distance was selected. Next, isolation forest, which is available in Python, was imported to predict whether single-cell data from the test compound is known (inliers) or novel (outliers) to the selected drug class. The mean of the prediction results from single-cell data is reported as mean prediction score.

Assay [3] has as its system MDA-MB-231 cells. Put plainly: Cell viability assay (Alamar blue) for drug IC50. Particulars: single drug, 48 hrs; for half of the IC50 values: concentration added in combination groups. An excerpt: Another aspect to consider is how to ensure the cells are in a similar state under different categories of drug treatments. To achieve this, we measured the half maximal inhibitory concentration (IC50) of different drugs separately by cell viability assays in 48 hrs, in agreement with the probe culturing time. This method is commonly used in pharmaceutical studies to compare the effect of various products. Besides the experimental operations, data analysis is vital to the obtained large-scale data to map cell phenotypes after drug perturbation. We thus built a complete analytical pipeline for Chemical Painting, including data preprocessing, single-cell segmentation, single-cell biochemical profile extraction and downstream analysis.
Cell viability assay and drug IC50 calculus. The IC50 values of the drugs were determined by Alamar blue assay. Cells were seeded at 10,000 per well in 96-well plates. After 24 h, the cells were washed twice with phosphate buffered saline (PBS) and treated with drugs at different concentrations in cell culture media for 48 hrs. Each drug concentration has 6-8 replicates. After the drug treatments, cells were washed with PBS twice and the cell viability was determined by Alamar blue assay following the manufacturer's protocol (Invitrogen) using plate reader. The IC50 values were determined by fitting the data using a dose response model with variable Hill slope built in Prism.
A general note: Resazurin is reduced to fluorescent resorufin, in cell work by metabolically active cells.

`CCC/C=C/C/C=C/C=C/C=N/NN=O` [triacsin-C, triacsin C]: in the assay with MDA-MB-231 cells [1], the “protein synthesis (13C amide I/(13C amide I+12C amide I))” value (“protein synthesis” below) is given as “remained at a similar level compared with the control group”, the “saturated FA metabolism (azido-PA/CH2)” value is given as “significant decreases” and the “unsaturated FA metabolism (d34OA/CH2)” value is recorded as “significant decreases”.

`CC(C)C[C@H](NC(=O)[C@H](Cc1ccccc1)NC(=O)c1cnccn1)B(O)O` [bortezomib]: in the assay on MDA-MB-231 cells [1], the “protein synthesis” value is “more evidently decreased”, the “saturated FA metabolism (azido-PA/CH2)” value was “reduced” and the “unsaturated FA metabolism (d34OA/CH2)” value is recorded as “reduced”.

Regarding `CC(=O)O[C@H]1C(=O)[C@@]2(C)[C@H]([C@H](OC(=O)c3ccccc3)[C@]3(O)C[C@H](OC(=O)[C@H](O)[C@@H](NC(=O)c4ccccc4)c4ccccc4)C(C)=C1C3(C)C)[C@]1(OC(C)=O)CO[C@@H]1C[C@@H]2O` [Taxol], in the assay with MDA-MB-231 cells [2], the Prediction result is recorded as “Novel”, the Mean score is on record as −0.5052 and the Outlier % was 75.26%.

Take `CO[C@H]1C[C@@H]2CC[C@@H](C)[C@@](O)(O2)C(=O)C(=O)N2CCCC[C@H]2C(=O)O[C@H]([C@H](C)C[C@@H]2CC[C@@H](OCCO)[C@H](OC)C2)CC(=O)[C@H](C)/C=C(\C)[C@@H](O)[C@@H](OC)C(=O)[C@H](C)C[C@H](C)/C=C/C=C/C=C/1C` [everolimus]: the “half of the IC50 values” in the assay on MDA-MB-231 cells [3] came out at 14.5 µM.

Turning to `CC[C@]1(O)C[C@H]2CN(CCc3c([nH]c4ccccc34)[C@@](C(=O)OC)(c3cc4c(cc3OC)N(C=O)[C@H]3[C@@](O)(C(=O)OC)[C@H](OC(C)=O)[C@]5(CC)C=CCN6CC[C@]43[C@@H]65)C2)C1` [Vincristine], in the assay with MDA-MB-231 cells [2], the Prediction entry is “Novel”, the Mean score is reported as −0.9466 and the Outlier % is listed as 97.33%.

In the case of `O=C(c1cc(Cc2n[nH]c(=O)c3ccccc23)ccc1F)N1CCN(C(=O)C2CC2)CC1` [olaparib], in the assay on MDA-MB-231 cells [1], the “protein synthesis” value is reported as “significantly reduced”, the “saturated FA metabolism (azido-PA/CH2)” value is on record as “significantly reduced” and the “unsaturated FA metabolism (d34OA/CH2)” value is listed as “significantly reduced”.

On to `CCC(=O)CCCCC[C@@H]1NC(=O)[C@H]2CCCCN2C(=O)[C@H]([C@@H](C)CC)NC(=O)[C@H](Cc2cn(OC)c3ccccc23)NC1=O` [Apicidin], for which, in the assay with MDA-MB-231 cells [2], the Mean score is −0.5289 and the Outlier % was 76.45%.

For `COc1cccc2c1C(=O)c1c(O)c3c(c(O)c1C2=O)C[C@@](O)(C(=O)CO)C[C@@H]3O[C@H]1C[C@H](N)[C@H](O)[C@H](C)O1` [doxorubicin, doxorubicin hydrochloride], in the assay with MDA-MB-231 cells [1], the “protein synthesis” value is listed as “largely inhibited”, the “saturated FA metabolism (azido-PA/CH2)” value was “largely inhibited” and the “unsaturated FA metabolism (d34OA/CH2)” value was “largely inhibited”.

Consider `NC(=O)c1ccc(I)c([N+](=O)[O-])c1` [Iniparib, iniparib], for which, in the assay on MDA-MB-231 cells [2], the Prediction result is listed as “Novel”, the Mean score was −0.9923 and the Outlier % is on record as 99.62%. Moreover, in the assay on MDA-MB-231 cells [2] (listed as iniparib), the Mean score result is “quite negative”.

For the molecule `CS(=O)(=O)CCNCc1ccc(-c2ccc3ncnc(Nc4ccc(OCc5cccc(F)c5)c(Cl)c4)c3c2)o1` [lapatinib], the IC50 in the assay on MDA-MB-231 cells [3] (Homo sapiens, MDA-MB-231, cell viability) amounted to 2.14 µM. In the assay on MDA-MB-231 cells [3], the “half of the IC50 values” worked out at 1.12 µM.

For `CC[C@H]1CN2CCc3cc(OC)c(OC)cc3[C@@H]2C[C@@H]1C[C@H]1NCCc2cc(OC)c(OC)cc21` [Emetine, emetine], in the assay on MDA-MB-231 cells [2], the Prediction result is recorded as “Protein”, the Mean score is reported as 0.6208 and the Outlier % is reported as 18.96%. Also, the Mean score entry with MDA-MB-231 cells [2] (listed as emetine) is listed as “high”.

For `COc1cccc2c1C(=O)c1c(O)c3c(c(O)c1C2=O)C[C@@](O)(C(C)=O)C[C@@H]3O[C@H]1C[C@H](N)[C@H](O)[C@H](C)O1` [Daunorubicin, Daunorubicin hydrochloride], in the assay on MDA-MB-231 cells [2], the Prediction result is on record as “DNA intercalation” and the Outlier % was 7.515%. Also, the Mean score in the assay with MDA-MB-231 cells [2] (hydrochloride) stood at 0.8497. The Mean score result in the assay on MDA-MB-231 cells [2] (listed as daunorubicin, hydrochloride) was “high”.

For the molecule TVB-3166, in the assay on MDA-MB-231 cells [1], the “protein synthesis” value was “slightly decreased”, the “saturated FA metabolism (azido-PA/CH2)” value is “significantly reduced” and the “unsaturated FA metabolism (d34OA/CH2)” value is listed as “significantly reduced”.

Take `C[C@@H]1C[C@@H]([C@H](O)CC2CC(=O)NC(=O)C2)C(=O)[C@@H](C)C1` [cycloheximide]: the “protein synthesis” value with MDA-MB-231 cells [1] was “much lower”.

As a reminder, the IC50 is the midpoint of a concentration-inhibition curve. Lower therefore signals greater potency.
